By IC50 is commonly meant the concentration that gives 50% inhibition. Read a low IC50 as greater potency in that assay.

This passage reports IC50 results from PMC7695371, “Mimetics of extra virgin olive oil phenols with anti-cancer stem cell activity” (Aging (Albany NY), 2020).

One assay concerns the target FRAP1 (mTOR) (Homo sapiens, UniProt P42345). Put plainly: FRET-based Z-LYTE kinase assay, […] concentrations. In kind it is biochemical.
A further assay concerns the target T1, DNMT3A (Homo sapiens, UniProt Q9Y6K1).
T1 construct: recombinant, Reaction Biology Corp. HotSpot assay
Put plainly: HotSpot radioisotope filter-binding methyltransferase assay, 10-dose. In kind it is biochemical.

T1 sequence (Q9Y6K1 whole entry, looked up): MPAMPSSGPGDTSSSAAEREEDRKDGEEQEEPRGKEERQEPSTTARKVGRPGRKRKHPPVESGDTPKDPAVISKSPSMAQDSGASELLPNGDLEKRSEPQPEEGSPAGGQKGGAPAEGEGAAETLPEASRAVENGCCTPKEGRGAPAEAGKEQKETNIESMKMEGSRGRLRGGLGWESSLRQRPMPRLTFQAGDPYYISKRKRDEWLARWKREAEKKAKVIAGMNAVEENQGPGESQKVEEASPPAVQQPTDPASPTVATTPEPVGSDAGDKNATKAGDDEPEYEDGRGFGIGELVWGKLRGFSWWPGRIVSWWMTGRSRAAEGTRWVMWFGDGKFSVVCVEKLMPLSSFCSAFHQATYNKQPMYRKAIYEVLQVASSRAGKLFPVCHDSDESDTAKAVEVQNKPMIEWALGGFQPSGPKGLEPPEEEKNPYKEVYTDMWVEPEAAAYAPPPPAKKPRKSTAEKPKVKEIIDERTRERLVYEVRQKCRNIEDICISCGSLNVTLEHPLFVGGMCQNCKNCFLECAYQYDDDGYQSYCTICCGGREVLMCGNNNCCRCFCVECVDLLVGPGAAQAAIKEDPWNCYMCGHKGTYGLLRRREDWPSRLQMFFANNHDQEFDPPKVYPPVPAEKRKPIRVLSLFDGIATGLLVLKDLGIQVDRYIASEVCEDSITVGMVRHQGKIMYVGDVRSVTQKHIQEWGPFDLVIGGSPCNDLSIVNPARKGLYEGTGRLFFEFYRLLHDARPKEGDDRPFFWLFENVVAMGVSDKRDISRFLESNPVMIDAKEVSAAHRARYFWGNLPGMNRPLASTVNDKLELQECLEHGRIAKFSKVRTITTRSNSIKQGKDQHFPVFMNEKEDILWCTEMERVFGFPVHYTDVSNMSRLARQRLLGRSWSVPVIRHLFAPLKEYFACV

With `CCCC(=O)OCCc1ccc(O)c(O)c1` [CHEMBL1950046, 3,4-Dihydroxyphenethyl butyrate], the IC50 at FRAP1 (mTOR) was approximately 39 µM; on DNMT3A, more than 150 µM.
